The results in this text go back to patent publication US11130750B2, “Calcium channel inhibitors” (Cavion, Inc., priority 2017, dated 2021).

The first test has as its system Human Glioma cancer cell line U251. Kind of test: Cell Proliferation Assay by CCK-8 Reagent. Type of test: cell-based. As to conditions: Homo sapiens, U-251, 72 h, U251 cells, 72 hours incubation, CCK-8, % viability vs vehicle control. The method, then: Human Glioma cancer cell line U251 was maintained in DMEM (Gibco, Cat #10569-10) supplemented with 10% fetal bovine serum inactivated at 56° C. (Gibco, Cat #10082-147), 100 U/mL penicillin, and 100 μg/mL streptomycin (Gibco, Cat #15140-122) at 37° C. and 1% MEM non-essential amino acid (Sigma, Cat #M7145) in a humid atmosphere containing 5% CO2. The cells were seeded at 2.5×10^3 cells/well in a 96 well plate (BD falcon, Cat #353072) with 200 pt volume/well and kept in 37° C./5% CO2 incubator for 0/N incubation. The seeding density was optimized previously based on growth curve. On the next day, plated cells were incubated with each test compounds at eight different concentrations (100, 50, 25, 12.5, 6.25, 3.125, 1.5 and 0.78) in triplicates. DMSO was used as a Vehicle control and Culture medium was used as blank control for the assay in each plate. The percentage of DMSO was kept uniform across the plate as <1%. The compound treated cells were incubated in 37° C./5% CO2 incubator for 72 hours. After incubation period, […] CCK-8 reagent (Dojindo, Cat #CK04) was added in all the wells and plate was kept in 37° C./5% CO2 incubator for 3 hours. After CCK-8 incubation, absorbance was measured @ 450 nm using Spectrophotometer (BMG, Omega Polar Star). % Viability values at each concentration were calculated with respect to Vehicle control and EC50 values were calculated using graph pad prism software and are shown in Table A.
As to `CNC(=O)O[C@]1(CCN(C)CCCc2nc3ccccc3[nH]2)CCc2cc(F)ccc2[C@@H]1C(C)C` [Example 1, (1S,2S)-2-(2-((3-(1H-Benzo[d]imidazol-2-yl)propyl)(methyl)amino)ethyl)-6-fluoro-1-isopropyl-1,2,3,4-tetrahydronaphthalen-2-yl methylcarbamate], the EC50 (usually the concentration that produces a half-maximal response) turned out to be 6 µM.
For the molecule `COC(=O)O[C@]1(CCN(C)CCCc2nc3ccccc3[nH]2)CCc2cc(F)ccc2[C@@H]1C(C)C` [Example 2, (1S,2S)-2-(2-((3-(1H-Benzo[d]imidazol-2-yl)propyl)(methyl)amino)ethyl)-6-fluoro-1-isopropyl-1,2,3,4-tetrahydronaphthalen-2-yl methylcarbonate], the concentration for a half-maximal effect (EC50) turned out to be 10 µM.
As to `CNC(=O)O[C@]1(CCN(C)CCCc2nc3c(C)ccc(C)c3[nH]2)CCc2cc(F)ccc2[C@@H]1C(C)C` [Example 3, (1S,2S)-2-(2-((3-(4,7-Dimethyl-1H-benzo[d]imidazol-2-yl)propyl)(methyl)amino)ethyl)-6-fluoro-1-isopropyl-1,2,3,4-tetrahydronaphthalen-2-yl methylcarbamate], the half-maximal effective concentration (EC50) is 6 µM.
In turn, `Cc1ccc(C)c2[nH]c(CCCN(C)CC[C@@]3(OC(=O)NCCN(C)C)CCc4cc(F)ccc4[C@@H]3C(C)C)nc12` [Example 4, (1S,2S)-2-(2-((3-(4,7-Dimethyl-1H-benzo[d]imidazol-2-yl)propyl)(methyl)amino)ethyl)-6-fluoro-1-isopropyl-1,2,3,4-tetrahydronaphthalen-2-yl (2-(dimethylamino)ethyl)carbamate] came in with a concentration for a half-maximal effect (EC50) of 2.5 µM.
The same measure, in the same setting: in the case of `CNC(=O)O[C@]1(CCN(C)CCCc2nc3c(OC)ccc(OC)c3[nH]2)CCc2cc(F)ccc2[C@@H]1C(C)C` [Example 5, (1S,2S)-2-(2-((3-(4,7-Dimethoxy-1H-benzo[d]imidazol-2-yl)propyl)(methyl)amino)ethyl)-6-fluoro-1-isopropyl-1,2,3,4-tetrahydronaphthalen-2-yl methylcarbamate] it was 10 µM.
The same measure, in the same setting: in the case of `COCCNC(=O)O[C@]1(CCN(C)CCCc2nc3c(OC)ccc(OC)c3[nH]2)CCc2cc(F)ccc2[C@@H]1C(C)C` [Example 6, (1S,2S)-2-(2-((3-(4,7-Dimethoxy-1H-benzo[d]imidazol-2-yl)propyl)(methyl)amino)ethyl)-6-fluoro-1-isopropyl-1,2,3,4-tetrahydronaphthalen-2-yl (2-methoxyethyl)carbamate] it was 15 µM; in that of `COc1ccc(Cl)c2[nH]c(CCCN(C)CC[C@@]3(OC(=O)N(C)C)CCc4cc(F)ccc4[C@@H]3C(C)C)nc12` [Example 7, (1S,2S)-2-(2-((3-(7-Chloro-4-methoxy-1H-benzo[d]imidazol-2-yl)propyl)(methyl)amino)ethyl)-6-fluoro-1-isopropyl-1,2,3,4-tetrahydronaphthalen-2-yl dimethylcarbamate], 7.7 µM; in that of `CC(C)[C@H]1c2ccc(F)cc2CC[C@@]1(CCN(C)CCCc1nc2c(C(F)(F)F)cc(C(F)(F)F)cc2[nH]1)OC(=O)N1CCOCC1` [Example 8, (1S,2S)-2-(2-((3-(4,6-Bis(trifluoromethyl)-1H-benzo[d]imidazol-2-yl)propyl)(methyl)amino)ethyl)-6-fluoro-1-isopropyl-1,2,3,4-tetrahydronaphthalen-2-yl morpholine-4-carboxylate], 6.8 µM.
For `CC(C)[C@H]1c2ccc(F)cc2CC[C@@]1(CCN(C)CCC(C)(C)c1nc2ccccc2[nH]1)OC(=O)N1CCOCC1` [Example 9, (1S,2S)-2-(2-((3-(1H-Benzo[d]imidazol-2-yl)-3-methylbutyl)(methyl)amino)ethyl)-6-fluoro-1-isopropyl-1,2,3,4-tetrahydronaphthalen-2-yl morpholine-4-carboxylate], a half-maximal response (EC50) required 68 µM. Against the preceding molecule, the EC50 is about 10-fold higher.
On the same count and under the same terms, the same measure for `CNC(=O)O[C@]1(CCN(C)CCC(C)(C)c2nc3ccccc3[nH]2)CCc2cc(F)ccc2[C@@H]1C(C)C` [Example 10, (1S,2S)-2-(2-((3-(1H-Benzo[d]imidazol-2-yl)-3-methylbutyl)(methyl)amino)ethyl)-6-fluoro-1-isopropyl-1,2,3,4-tetrahydronaphthalen-2-yl methylcarbamate]: 9.5 µM.
Molecule `CC(C)[C@H]1c2ccc(F)cc2CC[C@@]1(CCN(C)CCC(C)(C)c1nc2ccccc2[nH]1)OC(=O)NCCN(C)C` [Example 11, (1S,2S)-2-(2-((3-(1H-Benzo[d]imidazol-2-yl)-3-methylbutyl)(methyl)amino)ethyl)-6-fluoro-1-isopropyl-1,2,3,4-tetrahydronaphthalen-2-yl (2-(dimethylamino)ethyl)carbamate] yielded an EC50 of 2.5 µM. This EC50 lies about 3.8-fold lower than the previous one.
Still for that read-out and setting: in the case of `COCCNC(=O)O[C@]1(CCN(C)CCC(C)(C)c2nc3ccccc3[nH]2)CCc2cc(F)ccc2[C@@H]1C(C)C` [Example 12, (1S,2S)-2-(2-((3-(1H-Benzo[d]imidazol-2-yl)-3-methylbutyl)(methyl)amino)ethyl)-6-fluoro-1-isopropyl-1,2,3,4-tetrahydronaphthalen-2-yl (2-methoxyethyl)carbamate] it was 12 µM; in that of `CC(C)[C@H]1c2ccc(F)cc2CC[C@@]1(CCN(C)CCC(C)(C)c1nc2ccccc2[nH]1)OC(=O)NCCN1CCCC1` [Example 13, (1S,2S)-2-(2-((3-(1H-Benzo[d]imidazol-2-yl)-3-methylbutyl)(methyl)amino)ethyl)-6-fluoro-1-isopropyl-1,2,3,4-tetrahydronaphthalen-2-yl (2-(pyrrolidin-1-yl)ethyl)carbamate], 4.6 µM.
The same measure, in the same setting: the same measure for `CCN(CC)CCNC(=O)O[C@]1(CCN(C)CCC(C)(C)c2nc3ccccc3[nH]2)CCc2cc(F)ccc2[C@@H]1C(C)C` [Example 14, (1S,2S)-2-(2-((3-(1H-Benzo[d]imidazol-2-yl)-3-methylbutyl)(methyl)amino)ethyl)-6-fluoro-1-isopropyl-1,2,3,4-tetrahydronaphthalen-2-yl (2-(diethylamino)ethyl)carbamate]: 3.8 µM; for `Cc1ccc(C)c2[nH]c(CCCN(C)CC[C@@]3(OC(=O)N(C)C)CCc4cc(F)ccc4[C@@H]3C(C)C)nc12` [Example 16, (1S,2S)-2-(2-((3-(4,7-dimethyl-1H-benzo[d]imidazol-2-yl)propyl)(methyl)amino)ethyl)-6-fluoro-1-isopropyl-1,2,3,4-tetrahydronaphthalen-2-yl dimethylcarbamate]: 6 µM.
Same read-out and setting: the same measure for `Cc1ccc(C)c2[nH]c(CCCN(C)CC[C@]3(OC(=O)N4CCOCC4)CCc4cc(F)ccc4[C@H]3C(C)C)nc12` [Example 17, (1R,2R)-2-(2-((3-(4,7-Dimethyl-1H-benzo[d]imidazol-2-yl)propyl)(methyl)amino)ethyl)-6-fluoro-1-isopropyl-1,2,3,4-tetrahydronaphthalen-2-yl morpholine-4-carboxylate]: 4.3 µM.
Molecule `CC(C)[C@H]1c2ccc(F)cc2CC[C@@]1(CCN(C)CCC1(c2nc3ccccc3[nH]2)CC1)OC(=O)N1CCOCC1` [Example 19, (1S,2S)-2-(2-((2-(1-(1H-Benzo[d]imidazol-2-yl)cyclopropyl)ethyl)(methyl)amino)ethyl)-6-fluoro-1-isopropyl-1,2,3,4-tetrahydronaphthalen-2-yl morpholine-4-carboxylate] came in with a concentration for a half-maximal effect (EC50) of 23 µM. This EC50 is about 5.3-fold higher than that of the molecule before.
Molecule `CNC(=O)OC1(CCN(C)CCCc2nc3c(C)ccc(C)c3[nH]2)COc2cc(F)ccc2[C@@H]1C(C)C` (stereo partly drawn) [Example 21A, (4S)-3-(2-((3-(4,7-Dimethyl-1H-benzo[d]imidazol-2-yl)propyl)(methyl)amino)ethyl)-7-fluoro-4-isopropylchroman-3-yl methylcarbamate] showed an EC50 of 7 µM.
As to `COCC(=O)O[C@]1(CCN(C)CCCc2nc3ccccc3[nH]2)CCc2cc(F)ccc2[C@@H]1C(C)C` [Mibefradil, mibefradil, reference compound], it took 12 µM to reach a half-maximal effect (EC50).

The test is the same for the next values; noted with them: U251 cells, 72 hours incubation, CCK-8, % viability vs vehicle control.
For `CNC(=O)OC1(CCN(C)CCCc2nc3ccccc3[nH]2)COc2cc(F)ccc2[C@@H]1C(C)C` (single isomer, unassigned) [Example 20A], the concentration for a half-maximal effect (EC50) was 54 µM. This lies in the double-digit micromolar range.
Still for that read-out and setting: the same measure for `CNC(=O)OC1(CCN(C)CCCc2nc3ccccc3[nH]2)COc2cc(F)ccc2[C@@H]1C(C)C` (single isomer, unassigned) [Example 20B]: 12 µM; for `CNC(=O)OC1(CCN(C)CCCc2nc3c(C)ccc(C)c3[nH]2)COc2cc(F)ccc2[C@@H]1C(C)C` (stereo partly drawn) [Example 21B, (4S)-3-(2-((3-(4,7-Dimethyl-1H-benzo[d]imidazol-2-yl)propyl)(methyl)amino)ethyl)-7-fluoro-4-isopropylchroman-3-yl methylcarbamate]: 9 µM.
